Measurements taken from ChEMBL document CHEMBL3046274, “Toxicity of imidacloprid to developmental stages of Rhynchophorus ferrugineus (Curculionidae: Coleoptera): Laboratory and field tests” (Crop Prot, 2006).
The source made the active and inactive calls. No cut-off for these calls is given here.

Legend:
[1] = test system: Rhynchophorus ferrugineus; experiment: Pesticidal activity against adult Rhynchophorus ferrugineus (red palm weevil) assessed as mortality at 2 ppm, po at 48 hr post-treatment relative to control; assay type: functional
[2] = test system: Rhynchophorus ferrugineus; experiment: Pesticidal activity against Rhynchophorus ferrugineus (red palm weevil) cocoon assessed as mortality at 1 ppm administered by dipping for 3 min measured at 48 hr post-treatment relative to control; assay type: functional
[3] = test system: Rhynchophorus ferrugineus; experiment: Pesticidal activity against Rhynchophorus ferrugineus (red palm weevil) cocoon assessed as mortality at 2 ppm administered by dipping for 3 min measured at 18 hr post-treatment relative to control; assay type: functional
[4] = test system: Rhynchophorus ferrugineus; experiment: Pesticidal activity against Rhynchophorus ferrugineus (red palm weevil) larvae infested date palm tree assessed as reduction in mandibles movement of collected live stage larvae at 20 ml/4l of water applied through soil-drench irrigation measured after 3 weeks relative to control; assay type: functional, organism-based
[5] = test system: Rhynchophorus ferrugineus; experiment: Pesticidal activity against adult Rhynchophorus ferrugineus (red palm weevil) assessed as time required for 100% mortality at 1.5 ml/l administered topically; assay type: functional
[6] = test system: Rhynchophorus ferrugineus; experiment: Pesticidal activity against Rhynchophorus ferrugineus (red palm weevil) cocoon assessed as mortality at 20 ppm administered by dipping for 3 min measured at 90 hr post-treatment relative to control; assay type: functional
[7] = test system: Rhynchophorus ferrugineus; experiment: Pesticidal activity against Rhynchophorus ferrugineus (red palm weevil) larvae assessed as mortality at 500 ppm administered topically at 36 hr post-treatment; assay type: functional
[8] = test system: Rhynchophorus ferrugineus; experiment: Pesticidal activity against adult Rhynchophorus ferrugineus (red palm weevil) assessed as mortality at 1.5 ppm, po at 114 hr post-treatment relative to control; assay type: functional
[9] = test system: Rhynchophorus ferrugineus; experiment: Pesticidal activity against adult Rhynchophorus ferrugineus (red palm weevil) assessed as mortality at 100 ppm administered topically at 18 hr post-treatment; assay type: functional
[10] = test system: Rhynchophorus ferrugineus; experiment: Pesticidal activity against Rhynchophorus ferrugineus (red palm weevil) cocoon assessed as mortality at 20 ppm administered by dipping for 3 min measured at 24 hr post-treatment relative to control; assay type: functional
[11] = test system: Rhynchophorus ferrugineus; experiment: Pesticidal activity against adult Rhynchophorus ferrugineus (red palm weevil) assessed as mortality at 500 ppm administered topically at 36 hr post-treatment; assay type: functional
[12] = test system: Rhynchophorus ferrugineus; experiment: Pesticidal activity against adult Rhynchophorus ferrugineus (red palm weevil) assessed as mortality at 1 ppm, po at 114 hr post-treatment relative to control; assay type: functional
[13] = test system: Rhynchophorus ferrugineus; experiment: Contact toxicity against Rhynchophorus ferrugineus (red palm weevil) adults assessed as time required for 100% reversible knockdown at 1.5 ml/l for 5 min; assay type: functional
[14] = test system: Rhynchophorus ferrugineus; experiment: Pesticidal activity against Rhynchophorus ferrugineus (red palm weevil) larvae assessed as mortality at 500 ppm administered topically at 72 hr post-treatment; assay type: functional
[15] = test system: Rhynchophorus ferrugineus; experiment: Pesticidal activity against Rhynchophorus ferrugineus (red palm weevil) larvae assessed as mortality at 0.5 ppm, po at 18 hr post-treatment relative to control; assay type: functional
[16] = test system: Rhynchophorus ferrugineus; experiment: Contact toxicity against Rhynchophorus ferrugineus (red palm weevil) adults assessed as time required for 50% reversible knockdown at 1.5 ml/l for 2 min; assay type: functional
[17] = test system: Rhynchophorus ferrugineus; experiment: Pesticidal activity against Rhynchophorus ferrugineus (red palm weevil) larvae assessed as mortality at 300 ppm administered topically at 72 hr post-treatment; assay type: functional
[18] = test system: Rhynchophorus ferrugineus; experiment: Pesticidal activity against Rhynchophorus ferrugineus (red palm weevil) cocoon assessed as mortality at 4 ppm administered by dipping for 3 min measured at 18 hr post-treatment relative to control; assay type: functional
[19] = test system: Rhynchophorus ferrugineus; experiment: Pesticidal activity against Rhynchophorus ferrugineus (red palm weevil) larvae assessed as mortality at 1 ppm, po at 48 hr post-treatment relative to control; assay type: functional
[20] = test system: Rhynchophorus ferrugineus; experiment: Contact toxicity against Rhynchophorus ferrugineus (red palm weevil) adults assessed as time required for 100% mortality at 1.5 ml/l for 2 min; assay type: functional
[21] = test system: Rhynchophorus ferrugineus; experiment: Pesticidal activity against Rhynchophorus ferrugineus (red palm weevil) larvae assessed as mortality at 300 ppm administered topically at 36 hr post-treatment; assay type: functional
[22] = test system: Rhynchophorus ferrugineus; experiment: Pesticidal activity against Rhynchophorus ferrugineus (red palm weevil) cocoons assessed as time required for total mortality at 3.5 ml/l administered by dipping for 30 secs; assay type: functional
[23] = test system: Rhynchophorus ferrugineus; experiment: Contact toxicity against Rhynchophorus ferrugineus (red palm weevil) adults assessed as time required for 100% mortality at 1.5 ml/l for 5 min; assay type: functional
[24] = test system: Rhynchophorus ferrugineus; experiment: Pesticidal activity against Rhynchophorus ferrugineus (red palm weevil) cocoon assessed as mortality at 1.5 ppm administered by dipping for 3 min measured at 90 hr post-treatment relative to control; assay type: functional
[25] = test system: Rhynchophorus ferrugineus; experiment: Pesticidal activity against Rhynchophorus ferrugineus (red palm weevil) larvae assessed as mortality at 2 ppm, po at 114 hr post-treatment relative to control; assay type: functional
[26] = test system: Rhynchophorus ferrugineus; experiment: Pesticidal activity against Rhynchophorus ferrugineus (red palm weevil) larvae assessed as mortality at 500 ppm administered topically at 48 hr post-treatment; assay type: functional
[27] = test system: Rhynchophorus ferrugineus; experiment: Pesticidal activity against Rhynchophorus ferrugineus (red palm weevil) larvae assessed as mortality at 4 ppm, po at 24 hr post-treatment relative to control; assay type: functional
[28] = test system: Rhynchophorus ferrugineus; experiment: Pesticidal activity against adult Rhynchophorus ferrugineus (red palm weevil) assessed as mortality at 1.5 ppm, po at 90 hr post-treatment relative to control; assay type: functional
[29] = test system: Rhynchophorus ferrugineus; experiment: Pesticidal activity against Rhynchophorus ferrugineus (red palm weevil) larvae assessed as mortality at 2 ppm, po at 24 hr post-treatment relative to control; assay type: functional
[30] = test system: Rhynchophorus ferrugineus; experiment: Pesticidal activity against adult Rhynchophorus ferrugineus (red palm weevil) assessed as mortality at 300 ppm administered topically at 48 hr post-treatment; assay type: functional
[31] = test system: Rhynchophorus ferrugineus; experiment: Pesticidal activity against Rhynchophorus ferrugineus (red palm weevil) cocoon assessed as mortality at 0.5 ppm administered by dipping for 3 min measured at 72 hr post-treatment relative to control; assay type: functional
[32] = test system: Rhynchophorus ferrugineus; experiment: Pesticidal activity against Rhynchophorus ferrugineus (red palm weevil) cocoon assessed as mortality at 1 ppm administered by dipping for 3 min measured at 18 hr post-treatment relative to control; assay type: functional
[33] = test system: Rhynchophorus ferrugineus; experiment: Pesticidal activity against adult Rhynchophorus ferrugineus (red palm weevil) assessed as time required for reversible knockdown at 3.5 ml/l administered topically; assay type: functional
[34] = test system: Rhynchophorus ferrugineus; experiment: Pesticidal activity against adult Rhynchophorus ferrugineus (red palm weevil) assessed as mortality at 2 ppm, po at 90 hr post-treatment relative to control; assay type: functional
[35] = test system: Rhynchophorus ferrugineus; experiment: Pesticidal activity against Rhynchophorus ferrugineus (red palm weevil) larvae assessed as mortality at 2 ppm, po at 72 hr post-treatment relative to control; assay type: functional
[36] = test system: Rhynchophorus ferrugineus; experiment: Pesticidal activity against Rhynchophorus ferrugineus (red palm weevil) larvae assessed as mortality at 6 ppm, po at 18 hr post-treatment relative to control; assay type: functional
[37] = test system: Rhynchophorus ferrugineus; experiment: Pesticidal activity against adult Rhynchophorus ferrugineus (red palm weevil) assessed as mortality at 500 ppm administered topically at 18 hr post-treatment; assay type: functional
[38] = test system: Rhynchophorus ferrugineus; experiment: Pesticidal activity against Rhynchophorus ferrugineus (red palm weevil) cocoon assessed as mortality at 2 ppm administered by dipping for 3 min measured at 114 hr post-treatment relative to control; assay type: functional
[39] = test system: Rhynchophorus ferrugineus; experiment: Pesticidal activity against Rhynchophorus ferrugineus (red palm weevil) larvae assessed as mortality at 100 ppm administered topically at 18 hr post-treatment; assay type: functional
[40] = test system: Rhynchophorus ferrugineus; experiment: Pesticidal activity against Rhynchophorus ferrugineus (red palm weevil) cocoon assessed as mortality of emerged adult at low concentration administered by dipping for 3 min measured up to 1 week after emergence; assay type: functional, organism-based
[41] = test system: Rhynchophorus ferrugineus; experiment: Pesticidal activity against Rhynchophorus ferrugineus (red palm weevil) cocoons assessed as time required for total mortality at 2.5 ml/l administered by dipping for 5 secs; assay type: functional
[42] = test system: Rhynchophorus ferrugineus; experiment: Pesticidal activity against Rhynchophorus ferrugineus (red palm weevil) cocoon assessed as mortality at 20 ppm administered by dipping for 3 min measured at 114 hr post-treatment relative to control; assay type: functional

`O=[N+]([O-])/N=C1\NCCN1Cc1ccc(Cl)nc1` [IMIDACLOPRID] gave an Activity [1] of 100%, an Activity [2] of 0% and an Activity [3] of 0%. The Activity [4] was “Active”, the Time [5] was 11.5 days and the Activity [6] was 72.2%. It also gave an Activity [7] of 38.9%, an Activity [8] of 100% and an Activity [9] of 0%. It also gave an Activity [10] of 0%, an Activity [11] of 72.2% and an Activity [12] of 72.2%. For the same molecule, the Time [13] was 4.2 days, the Activity [14] was 72.2% and the Activity [15] was 0%. For the same molecule, the Time [16] was 3.2 days, the Activity [17] was 38.9% and the Activity [18] was 0%. It also gave an Activity [19] of 38.9%, a Time [20] of 18 days and an Activity [21] of 0%. The Time [22] was 3.2 days, the Time [23] was 8.1 days and the Activity [24] was 44.4%. For the same molecule, the Activity [25] was 100%, the Activity [26] was 72.2% and the Activity [27] was 100%. The Activity [28] was 100%, the Activity [29] was 100% and the Activity [30] was 72.2%. For the same molecule, the Activity [31] was 0%, the Activity [32] was 0% and the Time [33] was 1 days. The Activity [34] was 100%, the Activity [35] was 100% and the Activity [36] was 100%. The Activity [37] was 66.7%, the Activity [38] was 72.2% and the Activity [39] was 0%. The Activity [40] was “inactive”, the Time [41] was 9.5 days and the Activity [42] was 100%.
